Several values for one entry are separate records, joined by “and”; a condition that tells them apart may be missing. Equal values may be shown once.
Assays:
[1] = Calculation of hydrogel mesh size from equilibrium swelling data; assay type: physicochemical; conditions: for Average mesh size: average for equilibrium swelled hydrogels from linkers 7a, 7b and 8; for Calculated mesh size: equilibrium-swollen gels
Experimental: Using the calculated molecular weight between crosslinks, Mc, and the method previously described by Canal and Peppas, the hydrogel mesh size was calculated. First, the root-mean-square end-to-end distance of the polymer chains in the network, (r0^2)^1/2, was calculated as follows: (r0^2)^1/2=lCn^1/2n^1/2 (Equation S10) where l is the average bond length in the polymer (0.146 nm for PEG) and Cn is the characteristic ratio of the polymer (4.0 for PEG). The average number of bonds between crosslinks, n is calculated using the following equation:
[formula] where Mc is the average molecular weight between crosslinks, calculated as described in the previous section, and Mr is the molecular weight of the repeating unit for the PEG macromer (44 g/mol). Finally, the mesh size, ξ, is calculated using the following relationship: ξ=v2,s^−1/3(r0^2)^1/2 (Equation S12) where v2, is the partial volume of polymer in the equilibrium swollen hydrogel, and is calculated using the experimentally determined equilibrium weight swelling ratios.

[2] = Release of entrained cargo from PEG-OND hydrogels; assay type: physicochemical
Experimental: Finally, the diffusion of entrained, rather than covalently anchored, cargos of different sizes out of OND hydrogels of differing stabilities was measured. This was done with a small molecule (carboxyfluorescein), a globular protein (fluorescein-labeled bovine serum albumin, BSA), and a 30-nm protein nanoparticle (fluorescein-labeled bacteriophage Qb virus-like particle). The first and last species have no available thiol groups; the second was reacted with N-ethylmaleimide before gelation to cap cysteine-34 and avoid tethering of the protein cargo to the hydrogel network. Hydrogels derived from 4-PEG-SH and 7a, 7b, or 8 were formed in the presence of each cargo; the speed of this reaction made it highly unlikely that OND connectors were addressed by protein amine groups under these conditions.
Three sets of three 60 μL gels were prepared using linkers 7a, 7b, and 8, respectively. The first set contained 1 mM small molecule probe 5/6-carboxyfluorescein, while the second and third sets contained FITC labeled BSA and Qβ virus-like particle, respectively. The gels were allowed to set for 30 minutes at room temperature before dilution with 3 mL of pH 7.4 100 mM phosphate buffered saline. The samples were incubated at 37° C. and the increase in absorbance of the supernatant at 497 nm was monitored. The fraction of released dye was plotted against incubation time. Least-squares kinetic fitting to a first-order rate law was performed for release profiles obtained for carboxyfluorescein cargo, and for the release of BSA from non-degradable PEG-EONB (8) hydrogel (Solver plug-in, Microsoft Excel).

[3] = Degradation of neat PEG-OND hydrogels (inversion test, time-lapse photography); assay type: physicochemical
Experimental: Degradation rates of the PEG-OND hydrogels in the absence of swelling buffer varied with temperature and with the identity of OND used to form the gel. […] In comparison, gels formed using 7b were stable for more than 60 hours at 37° C., and approximately 13 hours at 50° C.
Three 500 μL 3.5 wt % hydrogels were formed with bis-ONDs 7a and 7b, and bis-EONB 8, respectively, in 2 mL vials with caps. The sealed vials were incubated in an oil bath maintained at 50° C. The samples were periodically removed from heat and the vials were inverted to determine if the gel was still intact, or whether the sample was a free-flowing liquid, as described in the main text. The gel formed between 4-PEG-SH and bis-EONB 8 in FIG. 9 was removed from heat after 5 days, and stored at room temperature in a sealed vial. The hydrogel is still intact at the time of writing (5 days at 50° C. followed by >1 year at room temperature). The inversion test was routinely used in all stability experiments to verify hydrogel integrity during incubation.
In order to observe reverse gelation upon prolonged heating of neat hydrogels, time-lapse photography was carried out. Briefly, 600 μL hydrogels comprised of 3.5 wt % 4-PEG-SH+bis-OND/EONB (7a, 7b, and 8, respectively) in pH 7.4 100 mM potassium phosphate buffer containing 7% DMSO (v/v) were formed in glass culture tubes and allowed to set for 15 minutes. A glass bead (˜160 mg, stained with blue Sharpie-brand marker to improve visibility) was placed carefully on top of each gel, and a drop of silicon oil was added to prevent evaporation at the surface of the gels. The tubes were sealed with lab parafilm and incubated in a 50° C. oil bath. Photos were collected every 2 minutes for ˜22 hours using Chronolapse software (v.1.0.4) and a Creative Labs webcam. Photographs were compiled in chronological order using iMovie software, with each photo occupying one 0.1 s frame. The resulting video is available as S1 Video, mentioned above.

[4] = Residual hydrogel thiol content with fluorogenic OND probe S-6; assay type: physicochemical; conditions: for Residual thiols in the gel network, average: average of both sets of gels from linkers 7a and 8, % of input macromer thiol content; for Gel Fraction % Residual Thiol: residual thiol in the gel, % of initial thiol content of input macromer; for Sol Fraction % Residual Thiol: thiol in supernatant, % of input thiol, swelled 18 hours at 4° C., pH 7.4 PBS, probe S-6
Experimental: The thiol content of cured hydrogels was determined by swelling gels in the presence of a small fluorogenic OND S-6, which we have previously described in our lab.
This probe reacts with thiols to produce a fluorescent adduct (FIG. 14A). […] Thus, the concentration of reagent S-6 in solution can be determined by quenching with thiol. Similarly, reagent S-6 can be used to quantify thiol in solution.
Based on cargo diffusion studies (see section X of this document), we expected that probe S-6 should easily permeate the hydrogel network under swelling conditions and react with accessible residual thiols present in the gel network. In order to test this hypothesis, 60 μL hydrogels were freshly prepared from 4-PEG-SH macromer and either linkers 8 or 7a as described in section III of this document. After curing for 20 minutes at room temperature, 3 mL of pH 7.4 0.1M PBS buffer containing 200 μM probe S-6 was added, and the gel was swelled at 4° C. for 18 hours. To account for hydrolytic degradation of our thiol probe during incubation, a sample was prepared with S-6 in buffer alone (lacking 4-PEG-SH and bis-OND linkers). After swelling, the gels were observed under long-wave ultraviolet light to reveal strongly fluorescent gels and weakly fluorescent supernatants (FIG. 15). […] Presumably the fluorescence in the supernatant of samples containing gels is due to soluble fraction of 4-PEG-SH macromer and oligomers not incorporated into the gel network.
In order to calculate the amount of residual thiol present in the soluble fraction, aliquots of the supernatant were removed and fluorescence was measured. Thiol content of the soluble fraction was determined by interpolation using the standard curve shown in FIG. 14 after accounting for fluorescence due to hydrolytic degradation. […] This amount corresponds well with the soluble fraction (soluble fraction=1−gel fraction) determined from swelling experiments (see Table 1 of main text). To determine residual thiol content present in gels, aliquots of the supernatant were quenched with a large excess (10 mM) of N-acetyl cysteine and the increase in fluorescence was measured to determine the amount of unreacted S-6 remaining in the supernatant. Accounting for the amount of probe already consumed by reaction with soluble fraction thiols and by hydrolytic degradation, the amount of residual thiol accessible for post-modification present in the gel was calculated as 13.4±1.4% and 10.8±2.4% of the initial thiol content of input macromer (average of 11.8±3.3 for both sets of gels prepared from linkers 7a and 8).

In the case of `COC(=O)C1=C(C(=O)OC)C2(CNC(=O)CCCC(=O)NCC34C=CC(O3)C(C(=O)OC)=C4C(=O)OC)C=CC1O2` [Linker 7a, Tetramethyl 1,1′-((glutaroylbis(azanediyl))bis(methylene))bis(7-oxabicyclo[2.2.1]hepta-2,5-diene-2,3-dicarboxylate)], the Average mesh size [1] is reported as 14.0±1.0 nm, the Calculated mesh size [1] is reported as 15.2 ± 0.9 nm and the “Fraction of BSA tethered to the network / not freely diffusing from the gel” value ([2]; FITC-BSA with ˜0.4 accessible thiols per protein) is reported as about 20%. The “Release of entrained BSA from the gel compared with more stable matrices” value ([2]; N-ethylmaleimide-capped FITC-BSA, pH 7.4, 37° C.) was “markedly faster”, the “Gel integrity on extended heating (inversion test)” value ([3]; neat gel, 50° C.) was “collapsed” and the “Gel stability by inversion test” value ([3]; neat gel, no swelling buffer, 4° C.) was “stable for more than two weeks”. The “Time gel is stable / collapses (inversion test)” value ([3]; neat gel, no swelling buffer, 37° C.) was 12 h, the “Time gel is stable / collapses (inversion test)” value ([3]; neat gel, no swelling buffer, 50° C.) was at most 3 h and the melting point was 163 to 167 °C. For the same compound, the “Residual thiols in the gel network, average” value [4] was 11.8±3.3%, the “Gel Fraction % Residual Thiol” value [4] was 10.8±2.4% and the “Sol Fraction % Residual Thiol” value [4] was 8.1±3.2%.

With `COC(=O)C1=C(C(=O)OC)C2(CNC(=O)CCCC(=O)NCC34OC(C(C(=O)OC)=C3C(=O)OC)C3OC34)OC1C1OC12` (centres unmarked) [Linker 8, Tetramethyl 1,1′-((glutaroylbis(azanediyl))bis(methylene))bis(3,8-dioxatricyclo[3.2.1.0^2,4]oct-6-ene-6,7-dicarboxylate)] the Average mesh size [1] was 14.0±1.0 nm, the Calculated mesh size [1] was 14.0 ± 0.9 nm and the “Release of entrained Qβ virus-like particles from the gel” value ([2]; pH 7.4, 37° C.) was “not released”. For the same compound, the “Inversion test for hydrogel degradation (FIG. 1B)” value [3] was “stable indefinitely”, the Long-term gel integrity ([3]; 5 days at 50° C. followed by >1 year at room temperature) was “still intact” and the “Gel integrity on extended heating (inversion test)” value ([3]; neat gel, 50° C.) was “remained intact”. For the same compound, the “Gel stability by time-lapse photography, gel supporting a glass bead” value ([3]; neat gel, heating (50° C.)) was “remained intact”, the melting point was 125 to 130 °C and the “Residual thiols in the gel network, average” value [4] was 11.8±3.3%. For the same compound, the “Gel Fraction % Residual Thiol” value [4] was 13.4±1.4% and 12.8 ± 2.2% and the “Sol Fraction % Residual Thiol” value [4] was 2.1±0.4%.

From patent US10517952B2, “Nucleophile-triggered degradable materials and methods of making and using the same” (GEORGIA TECH RESEARCH CORPORATION, priority 2014, dated 2019)
